Data set [1] is described as follows: H+/Na+ transport assay of bead-derived peptides (one-point).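 Also: relative to parent gramicidin A activity set to 1.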 It counts as biochemical. On the set-up: key: relative activity; mean of two control wells = 1.00. Conditions: bead-derived peptide solution, EYPC/EYPG LUVs. Here is the method: (§1) Each type of assay must be simplified and miniaturized to assess the activities of the library peptides in a 96-well format for the high-throughput screening.
H+/Na+ transport assay of bead-derived peptides.1,2,3 Trisodium 8-hydroxypyrene-1,3,6-trisulfonate
mini-extruder apparatus (Avanti Polar Lipids).
28.9 µmol) in CHCl3 (225 µL) and egg yolk phosphatidylglycerol (1.20 mg, 1.56 µmol) in CHCl3 (60.0 µL)
The thin film was hydrated and
1.0 mM pyranine) by sonication.
A suspension of the LUVs was immediately
used for the H+/Na+ transport assay.
The diluted solution of peptide
flat-bottom 96-well plate (655086, Greiner bio-one).
was vortexed at room temperature for 30 min.
(5/95, 3.0 µL) and the LUV suspension were mixed in each plate to determine 100% lysis. The untreated
LUV suspension was used to determine 0% lysis.
normalized against 100% lysis by Triton X-100 (Imax) and 0% lysis (I0) as following, where Ix is the
fluorescence intensity (Supplementary Equation 2).
I = 100 × (Ix – I0) / (Imax – I0) (2)
The mean value of the two control wells was set to 1.00. […]

Data set [2] relates to P388 mouse leukemia cells. As to conditions: 92 h. From the text: Each type of assay must be simplified and miniaturized to assess the activities of the library peptides in a 96-well format for the high-throughput screening. […]
Mammalian cytotoxicity assay of bead-derived peptides . P388 cells were obtained from Institute of
Development Aging and Cancer (Tohoku University). The cells were maintained with growth medium
[RPMI1640 with phenol red ( Fujifilm Wako Pure Chemical) supplemented with 10% heat -inactivated fetal
bovine serum, pe nicillin G (100 units/mL), and streptomycin (100 µg/mL)] under atmosphere of 5% CO 2 at
The collected cells were resuspended into
the growth medium at 2 × 10^4 cells/mL. The stock solutions of the peptide library were 250-fold diluted
with the growth medium. Aliquots of the medium (100 µL) containing peptides and the latter medium
containing P388 cells (100 µL) were mixed in a 96-well cell culture plate (TR5003, TrueLine). The final
concentration of P388 cells was 1 × 10^4 cells/mL. After incubation under atmosphere of 5% CO2 at 37 °C
for 92 h, the numbers of viable cells were determined by
2-(4-iodophenyl)-3-(4-nitrophenyl)-5-(2,4-disulfophenyl)-2H-tetrazolium, monosodium salt (WST-1) assay.
A solution of 1-methoxy-5-methylphenazinium methyl sulfate (1-methoxy PMS) and WST-1 in the growth
medium (1-methoxy PMS 0.70 mg/mL in Milli-Q/WST-1 3.6 mg/mL in pH 7.4 HEPES buffer = 1/9) was
added to each well of the plate (10.0 µL/well). The plate was incubated for 4 h under atmosphere of 5% CO2
at 37 °C. The absorbance of each well at 415 nm was measured using a Benchmark microplate reader
(Bio-Rad). The cytotoxicities were evaluated as cell viability (%). […]

For data set [3], the system named is Streptococcus pyogenes SSI-9. Description: Antibacterial activity assay of bead-derived peptides (three concentrations). As to conditions: S. pyogenes, bead-derived peptide solution, three concentrations. On the set-up: key: +++: inhibition by the 640-fold diluted peptide solution; ++: inhibition by the 160-fold diluted solution; +: inhibition by the 40-fold diluted solution; -: no inhibition. It counts as cell-based. As for the experimental part: as §1
Next, the peptides in groups A and B were subjected to the antibacterial assay and structural determination. Three peptide concentrations were applied to evaluate the growth inhibition of S. pyogenes and determine the antibacterial activity. […] Finally, the structures of the peptides were determined. […]
Antibacterial activity assay of bead-derived peptides. The stock solution of the peptide library was 4- and […]
16-fold diluted with DMSO. The non-diluted stock solution, 4-fold diluted solution, and 16-fold diluted […]
solution were transferred to the 96-well round-bottom plate (3367, Corning, 1.0 µL/well). To the solution of […]
peptide in each well was added a suspension of Streptococcus pyogenes SSI-9 strain in cation adjusted […]
Mueller Hinton Broth [40.0 µL, 2 × 10^5 colony forming units (CFU), 21 g/L Mueller Hinton Broth (Difco), 50 […]
mg/L Ca2+ (adjusted with CaCl2•2H2O), and 25 mg/L Mg2+ (adjusted with MgCl2•6H2O)] supplemented with […]
5% laked horse blood (Nippon Biotest Laboratories). The plate was incubated at 37 °C for 18 h, and the precipitation of the grown cells was examined. […]

Where a SMILES comes first, the peptide text is derived from it. [ ]: non-standard residue; d: D form. The star is where a group is joined. NHCH2CH2OH = OCCN*; For = O=C*

Experimental findings from paper PMC7531004, “Discovery of gramicidin A analogues with altered activities by multidimensional screening of a one-bead-one-compound library” (Nature Communications, 2020) are described below.

For `CC(C)C[C@@H](NC(=O)[C@H](Cc1c[nH]c2ccccc12)NC(=O)[C@@H](CC(C)C)NC(=O)[C@@H](NC(=O)[C@H](NC(=O)[C@H](C)NC(=O)[C@H](NC(=O)[C@H](C)NC(=O)CNC(=O)[C@@H](NC=O)C(C)C)[C@H](C)O)C(C)C)C(C)C)C(=O)N[C@@H](Cc1c[nH]c2ccccc12)C(=O)N[C@H](CC(C)C)C(=O)N[C@@H](Cc1c[nH]c2ccccc12)C(=O)N[C@@H](C(=O)N[C@@H](Cc1c[nH]c2ccccc12)C(=O)NCCO)C(C)C` [compound 94] (For-VGA[dT]A[dV]V[dL]W[dL]W[dL]W[dV]W-NHCH2CH2OH), in data set [1], the “H+/Na+ transport activity normalized against the value of 1 (1.00)” value (“H+/Na+ transport activity normalized” below) turned out to be 1.16. In addition, in data set [2], the cell viability/% is 100.0%. For the same compound, in data set [3], the antibacterial activity entry is listed as “-”.
Taken in the same sequence, the figures for `CC(C)C[C@@H](NC(=O)[C@H](Cc1c[nH]c2ccccc12)NC(=O)[C@H](NC(=O)[C@H](Cc1c[nH]c2ccccc12)NC(=O)[C@H](NC(=O)[C@H](Cc1c[nH]c2ccccc12)NC(=O)[C@@H](CC(C)C)NC(=O)[C@@H](NC(=O)[C@H](NC(=O)[C@H](C)NC(=O)[C@H](NC(=O)[C@H](C)NC(=O)CNC(=O)[C@@H](NC=O)C(C)C)C(C)C)C(C)C)C(C)C)C(C)C)C(C)C)C(=O)N[C@@H](Cc1c[nH]c2ccccc12)C(=O)NCCO` [compound 97] (For-VGA[dV]A[dV]V[dL]W[dV]W[dV]W[dL]W-NHCH2CH2OH) were 1.24, 59.7% and “+”.
Consider `CNC(=O)C[C@@H](NC(=O)[C@@H](NC(=O)[C@@H](CC(C)C)NC(=O)[C@H](C)NC(=O)[C@@H](CC(C)C)NC(=O)[C@H](C)NC(=O)CNC(=O)[C@@H](NC=O)C(C)C)C(C)C)C(=O)N[C@@H](Cc1c[nH]c2ccccc12)C(=O)N[C@H](CC(C)C)C(=O)N[C@@H](Cc1c[nH]c2ccccc12)C(=O)N[C@@H](C(=O)N[C@@H](Cc1c[nH]c2ccccc12)C(=O)N[C@H](CC(C)C)C(=O)N[C@@H](Cc1c[nH]c2ccccc12)C(=O)NCCO)C(C)C` [compound 173] (For-VGA[dL]A[dL]V[dD](NHMe)W[dL]W[dV]W[dL]W-NHCH2CH2OH), for which, in data set [1], the “H+/Na+ transport activity normalized” value is 1.07. The cell viability/% in data set [2] is reported as 100.0%. In data set [3], the antibacterial activity entry was “-”.
The matching figures for `CC(C)C[C@@H](NC(=O)[C@H](Cc1c[nH]c2ccccc12)NC(=O)[C@H](NC(=O)[C@H](Cc1c[nH]c2ccccc12)NC(=O)[C@@H](CC(C)C)NC(=O)[C@@H](NC(=O)[C@H](NC(=O)[C@H](C)NC(=O)[C@H](NC(=O)[C@H](C)NC(=O)CNC(=O)[C@@H](NC=O)C(C)C)[C@H](C)O)C(C)C)C(C)C)C(C)C)C(=O)N[C@@H](Cc1c[nH]c2ccccc12)C(=O)N[C@@H](C(=O)N[C@@H](Cc1c[nH]c2ccccc12)C(=O)NCCO)C(C)C` [compound 182] (For-VGA[dT]A[dV]V[dL]W[dV]W[dL]W[dV]W-NHCH2CH2OH): 1.16, 100.0% and “-”.
As to `CNC(=O)C[C@@H](NC(=O)[C@@H](NC(=O)[C@H](NC(=O)[C@H](C)NC(=O)[C@H](NC(=O)[C@H](C)NC(=O)CNC(=O)[C@@H](NC=O)C(C)C)C(C)C)C(C)C)C(C)C)C(=O)N[C@@H](Cc1c[nH]c2ccccc12)C(=O)N[C@H](CC(C)C)C(=O)N[C@@H](Cc1c[nH]c2ccccc12)C(=O)N[C@H](CC(C)C)C(=O)N[C@@H](Cc1c[nH]c2ccccc12)C(=O)N[C@@H](C(=O)N[C@@H](Cc1c[nH]c2ccccc12)C(=O)NCCO)C(C)C` [compound 231] (For-VGA[dV]A[dV]V[dD](NHMe)W[dL]W[dL]W[dV]W-NHCH2CH2OH), the “H+/Na+ transport activity normalized” value in data set [1] is given as 1.14. The cell viability/% in data set [2] was 100.0%. For the same compound, the antibacterial activity result in data set [3] was “-”.
As to `CC(C)C[C@@H](NC(=O)[C@H](C)NC(=O)[C@H](NC(=O)[C@H](C)NC(=O)CNC(=O)[C@@H](NC=O)C(C)C)[C@H](C)O)C(=O)N[C@H](C(=O)N[C@H](CC(C)C)C(=O)N[C@@H](Cc1c[nH]c2ccccc12)C(=O)N[C@@H](C(=O)N[C@@H](Cc1c[nH]c2ccccc12)C(=O)N[C@H](CC(C)C)C(=O)N[C@@H](Cc1c[nH]c2ccccc12)C(=O)N[C@@H](C(=O)N[C@@H](Cc1c[nH]c2ccccc12)C(=O)NCCO)C(C)C)[C@H](C)O)C(C)C` [compound 367] (For-VGA[dT]A[dL]V[dL]W[dT]W[dL]W[dV]W-NHCH2CH2OH), the “H+/Na+ transport activity normalized” value in data set [1] was 1.24. In data set [2], this compound had a cell viability/% of 100.0%. In addition, the antibacterial activity result in data set [3] is on record as “-”.
Regarding `CC(C)C[C@@H](NC(=O)[C@H](Cc1c[nH]c2ccccc12)NC(=O)[C@H](NC(=O)[C@H](Cc1c[nH]c2ccccc12)NC(=O)[C@H](NC(=O)[C@H](Cc1c[nH]c2ccccc12)NC(=O)[C@H](NC(=O)[C@@H](NC(=O)[C@H](NC(=O)[C@H](C)NC(=O)[C@H](NC(=O)[C@H](C)NC(=O)CNC(=O)[C@@H](NC=O)C(C)C)C(C)C)[C@H](C)O)C(C)C)C(C)C)C(C)C)C(C)C)C(=O)N[C@@H](Cc1c[nH]c2ccccc12)C(=O)NCCO` [compound 379] (For-VGA[dV]A[dT]V[dV]W[dV]W[dV]W[dL]W-NHCH2CH2OH), in data set [1], the “H+/Na+ transport activity normalized” value is on record as 1.19. Moreover, in data set [2], the cell viability/% is 100.0%. In data set [3], the antibacterial activity entry was “-”.
With `CC(C)C[C@@H](NC(=O)[C@H](Cc1c[nH]c2ccccc12)NC(=O)[C@H](NC(=O)[C@H](Cc1c[nH]c2ccccc12)NC(=O)[C@H](NC(=O)[C@H](Cc1c[nH]c2ccccc12)NC(=O)[C@@H](CC(C)C)NC(=O)[C@@H](NC(=O)[C@H](NC(=O)[C@H](C)NC(=O)[C@H](NC(=O)[C@H](C)NC(=O)CNC(=O)[C@@H](NC=O)C(C)C)C(C)C)C(C)C)C(C)C)C(C)C)C(C)C)C(=O)N[C@@H](Cc1c[nH]c2ccccc12)C(=O)NCCO` [compound 448] (For-VGA[dV]A[dV]V[dL]W[dV]W[dV]W[dL]W-NHCH2CH2OH), the “H+/Na+ transport activity normalized” value in data set [1] is 1.07. This compound also yielded a cell viability/% in data set [2] of 34.1%. Also, the antibacterial activity result in data set [3] is listed as “+”.
Consider `CC(C)C[C@@H](NC(=O)[C@H](Cc1c[nH]c2ccccc12)NC(=O)[C@H](NC(=O)[C@H](Cc1c[nH]c2ccccc12)NC(=O)[C@@H](CC(C)C)NC(=O)[C@H](Cc1c[nH]c2ccccc12)NC(=O)[C@@H](CC(C)C)NC(=O)[C@@H](NC(=O)[C@H](NC(=O)[C@H](C)NC(=O)[C@H](NC(=O)[C@H](C)NC(=O)CNC(=O)[C@@H](NC=O)C(C)C)C(C)C)C(C)C)C(C)C)[C@H](C)O)C(=O)N[C@@H](Cc1c[nH]c2ccccc12)C(=O)NCCO` [compound 457] (For-VGA[dV]A[dV]V[dL]W[dL]W[dT]W[dL]W-NHCH2CH2OH), for which, in data set [1], the “H+/Na+ transport activity normalized” value turned out to be 1.08. In data set [2], this compound registered a cell viability/% of 95.8%. The antibacterial activity entry in data set [3] is given as “+”.
